# In patent publication US9241951B2, “Of gastrointestinal health, immunity and performance by dietary intervention” (BIOATLANTIS LTD, priority 2009, dated 2016):
# Legend:
# Assay in all cases: Mucin gene expression in ileum and colon (qPCR), Example 5
# Assay type in all cases: in vivo, pig
# [1] = tested on: MUC12; details: LAM supplementation
# Description: (§1) 21 pigs with an initial weight of 17.9±2.2 Kg were assigned to one of the 3 dietary treatments: (T1) control; (T2) basal diet+300 ppm LAM; (T3) basal diet+600 ppm LAM. Experimental feeding continued for 21 days ad libitum. Diets were formulated to have similar digestible energy (DE) (14.4 MJ/Kg) and ileal digestible lysine (12.5 g/Kg).
# (§2) Ileal and colonic tissues was stabilised in RNAlater® solution and stored overnight at 4° C. The following day, RNAlater® was removed and samples were stored at −86° C. prior to RNA extraction.
# (§3) Tissue samples for RNA extraction were removed from −86° C. and homogenised. 500 μl of lysis solution/2-ME was added to each sample and these were mechanically disrupted using one 5 mm stainless steel bead per sample. These were then placed in a Tissue Lyser (Qiagen) and lysates were homogenised for 3 mins and transferred to a GenElute Filtration Column (Sigma Aldrich) and RNA was extracted. 1 µg of total RNA was used for cDNA synthesis using oligo(dT)20 primer in a final reaction volume of 20 μl with Superscript™ III First-Strand synthesis system for reverse transcriptase-polymerase chain reaction (RT-PCR) (Invitrogen Life Technologies, Carlsbad, Calif.). At the last step of cDNA synthesis, treatment with E. coli RNase H (Invitrogen Corp.) was performed to digest the remaining RNA/mRNA template, resulting in the production of the single-stranded cDNA template for subsequent qRT-PCR reactions.
# (§4) All porcine primers for the cytokine genes interferon gamma (IFN-γ), interleukin-1α (IL-1α), IL-6, IL-8, IL-10, IL-17, tumour necrosis factor (TNF-α), the mucin genes (MUCs 1, 2, 4, 5AC, 12, 13 and 20) and three reference genes, β-actin (ACTB), Glyceraldehyde-3-phosphate dehydrogenase (GAPDH) and Peptidylprolyl isomerase A (PPIA), were designed using Primer Express™ (PE Applied Biosystems, Foster City, Calif.) and synthesised by MWG Biotech (Milton Keynes, UK). These reference genes were previously validated for use in porcine tissue and qPCR was then carried out on the cDNA using the ABI PRISM 7900HT Fast sequence detection system for 96-well plates (Applied Biosystems, Foster City, Calif.). All samples were prepared in duplicate using SYBR Green Fast PCR Master Mix (Applied Biosystems, Foster City, Calif.), cDNA as template and specific primers for the genes selected. For each reaction 5 μl cDNA, 1.2 μl (forward and reverse primer mix, 5 μM), 10 μl Fast SYBR Green PCR Master Mix (PE Applied Biosystems, Foster City, Calif.) was added and made up to a final volume of 20 μl. The two step PCR program was as follows: 95° C. for 10 minutes for 1 cycle followed by 95° C. for 15 seconds and 60° C. for 1 minute for 40 cycles. The raw Ct values for the reference genes were converted to relative quantities using the formula Q=E ^ΔCt where E is the PCR efficiency of the assay and ^ΔCt is the value calculated for the difference between the lowest Ct value for each gene minus the Ct value of the sample in question. The relative quantities of the endogenous controls were then analysed for stability in geNorm (Vandesompele et al., 2002). The stability ‘M’ value generated by the geNorm application for the selected endogenous controls (ACTB, GAPDH and PPIA) indicated their suitability as endogenous controls for these intestinal samples. The geometric mean of the relative quantities for ACTB, GAPDH and PPIA (normalisation factor) was then calculated using geNorm. The relative quantities of each target gene were divided by the normalisation factor (obtained in geNorm) for that sample to give the final normalised relative expression.
# [2] = tested on: MUC13; details: LAM supplementation
# Description: as §1, §2, §3, §4
# [3] = tested on: MUC1; details: colon; LAM supplementation
# Description: as §1, §2, §3, §4
# [4] = tested on: MUC20; details: LAM supplementation
# Description: as §1, §2, §3, §4
# [5] = tested on: MUC2
# Description: as §1, §2, §3, §4
# [6] = tested on: MUC4
# Description: as §1, §2, §3, §4
# [7] = tested on: MUC5AC; details: colon; LAM supplementation
# Description: as §1, §2, §3, §4
substance,measurement,setting,value
laminarin,MUC12 expression,[1]; colon,no effect
same,MUC12 expression,[1]; ileum,no effect
same,MUC13 expression,[2]; colon,no effect
same,MUC13 expression,[2]; ileum,no effect
same,MUC1 expression,[3],no effect
same,MUC20 expression,[4]; colon,no effect
same,MUC20 expression,[4]; ileum,no effect
same,MUC2 expression,"[5]; colon, LAM 600 ppm",significantly increased
same,MUC2 expression,"[5]; ileum, LAM 300 ppm relative to control animals",increase
same,increased MUC2 expression,"[5]; ileum, LAM 600 ppm",not observed
same,MUC4 expression,"[6]; colon, LAM 600 ppm",significantly increased
same,MUC4 expression,"[6]; ileum, LAM supplementation",no effect
same,MUC5AC expression,[7],no effect
